Measurements taken from patent US20250144067A1, “PERSONALIZED STARVATION THERAPY FOR CANCER” (Faeth Therapeutics, Inc., priority 2021, published 2025).
Structures can show the parent of a compound that is named as a salt.

Tests used:
[1] = system: NCI-H292 lung cancer cells; test: FDA drug screening, complete media vs cholesterol-free media with simvastatin (TABLE 2); type: cell-based, human; settings: for Cholesterol-free media + simvastatin (0.04 μM) / Complete Media: NCI-H292 cells
[2] = system: NCI-H292 lung cancer cells; test: FDA drug screening, complete media vs cholesterol-free media without statin (TABLE 1); type: cell-based, human
[3] = FDA drug library screen, cholesterol-free media with simvastatin 0.04 μM
[4] = FDA drug library screen, complete media
[5] = complete media vs cholesterol-free media + simvastatin (0.04 μM), >0 enhanced anti-cancer activity, about 0 neutral, <0 antagonist
[6] = Complete minus Cholesterol-free, greater than 0 enhanced anti-cancer activity, about 0 neutral, below 0 antagonists
[7] = NCI-H292 cells in cholesterol-free media without statin
[8] = NCI-H292 cells in complete media
[9] = complete media minus cholesterol-free media + simvastatin, >0 enhanced anti-cancer activity, about 0 neutral, <0 antagonist
[10] = Complete minus Cholesterol-free, >0 enhanced anti-cancer activity, about 0 neutral, <0 antagonist
[11] = NCI-H292 cells, cholesterol-free media without statin, FDA drug library screen
[12] = NCI-H292 cells, complete media, FDA drug library screen
[13] = Complete minus Cholesterol-free, greater than 0 enhanced anti-cancer activity, about 0 neutral, below 0 antagonist
[14] = NCI-H292 cells, FDA drug library screen, cholesterol-free media without statin
[15] = NCI-H292 cells, FDA drug library screen, complete media
[16] = drug in cholesterol-free media with simvastatin 0.04 μM
[17] = complete vs cholesterol-free media, >0 enhanced anti-cancer activity, about 0 neutral, <0 antagonist
[18] = NCI-H292 cells, cholesterol-free media without statin
[19] = complete vs cholesterol-free media, greater than 0 enhanced anti-cancer activity, about 0 neutral, below 0 antagonists
[20] = cholesterol-free media with simvastatin 0.04 μM, FDA drug library screen (TABLE 2)
[21] = complete media, FDA drug library screen (TABLE 2)
[22] = complete media minus cholesterol-free media + simvastatin (0.04 μM), >0 enhanced anti-cancer activity, about 0 neutral, <0 antagonist

O=S(=O)(O)c1cc(O)ccc1O [Ethamsylate]
Cholesterol-free media + simvastatin (0.04 μM) [1, 3]: 1.397 | Complete Media [1, 4]: 1.245 | Difference [1, 5]: −0.15 | Difference [2, 6]: −0.53 | Cholesterol-free [2, 7]: 1.652 | Complete [2, 8]: 1.118

Flupirtine (Maleate)
Cholesterol-free media + simvastatin (0.04 μM) ([1]; cholesterol-free media with simvastatin 0.04 μM, cell growth value in FDA drug screen): 0.9024 | Complete Media ([1]; complete media, cell growth value in FDA drug screen): 0.9412 | Difference [1, 9]: 0.04 | Difference [2, 6]: −0.56 | Cholesterol-free [2, 7]: 1.589

Nc1nc2ccc(OC(F)(F)F)cc2s1 [Riluzole]
Cholesterol-free media + simvastatin (0.04 μM) [1, 3]: 0.9966 | Complete Media [1, 4]: 1.259 | Difference [1, 9]: 0.26 | Difference [2, 10]: 0.02 | Cholesterol-free [2, 11]: 1.015 | Complete [2, 12]: 1.033

O=C(CCCc1ccccc1)OCC(COC(=O)CCCc1ccccc1)OC(=O)CCCc1ccccc1 [Glycerol phenylbutyrate]
Cholesterol-free media + simvastatin (0.04 μM) ([1]; FDA library drug in cholesterol-free media with simvastatin 0.04 μM): 1.737 | Complete Media ([1]; FDA library drug in complete media): 1.34 | Difference [1, 5]: −0.40 | Difference [2, 13]: −0.17 | Cholesterol-free [2, 14]: 1.054 | Complete [2, 15]: 0.8817

CC(C)NCC(O)COc1cccc2[nH]ccc12 (centres unmarked) [Pindolol]
Cholesterol-free media + simvastatin (0.04 μM) [1, 16]: 1.032 | Complete Media ([1]; drug in complete media): 0.7777 | Difference [1, 5]: −0.25 | Cholesterol-free [2, 11]: 0.8852 | Complete [2, 12]: 0.973 | Difference [2, 17]: 0.09

CCCN1CCCC[C@H]1C(=O)Nc1c(C)cccc1C.CS(=O)(=O)O [Ropivacaine (mesylate)]
Cholesterol-free media + simvastatin (0.04 μM) [1, 3]: 0.9302 | Difference [1, 9]: 0.22 | Cholesterol-free [2, 18]: 1.155 | Complete ([2]; NCI-H292 cells, complete media): 0.7954 | Difference [2, 19]: −0.36

CC[C@]12CCCN3CCc4c(n(c5ccccc45)[C@@](O)(C(=O)OC)C1)[C@@H]32 [Vincamine]
Cholesterol-free media + simvastatin (0.04 μM) [1, 20]: 0.8199 | Complete Media [1, 21]: 0.7686 | Difference [1, 22]: −0.05 | Cholesterol-free [2, 11]: 0.6922 | Complete [2, 12]: 1.178 | Difference [2, 17]: 0.49

CC(=O)NS(=O)(=O)c1ccc(N)cc1 [Sulfacetamide]
Cholesterol-free media + simvastatin (0.04 μM) [1, 3]: 0.6778 | Complete Media [1, 4]: 0.8793 | Difference [1, 9]: 0.20 | Difference [2, 13]: −0.14 | Cholesterol-free [2, 14]: 1.146 | Complete [2, 15]: 1.008

NC(=O)CC[C@H](N)C(=O)O [L-Glutamine]
Cholesterol-free media + simvastatin (0.04 μM) [1, 20]: 0.8178 | Complete Media [1, 21]: 0.7954 | Difference [1, 22]: −0.02 | Cholesterol-free [2, 11]: 1.026 | Complete [2, 12]: 1.522 | Difference [2, 17]: 0.50

c1ccc(Cc2nc3ccccc3[nH]2)cc1 [Bendazol]
Cholesterol-free media + simvastatin (0.04 μM) [1, 3]: 1.208 | Complete Media [1, 4]: 1.472 | Difference [1, 9]: 0.26 | Cholesterol-free [2, 11]: 1.234 | Complete [2, 12]: 1.354 | Difference [2, 17]: 0.12

COc1ccnc(C[S+]([O-])c2nc3cc(OC(F)F)ccc3[n-]2)c1OC.[Na+] (centres unmarked) [Pantoprazole (sodium)]
Cholesterol-free media + simvastatin (0.04 μM) ([1]; cholesterol-free media with simvastatin 0.04 μM, […]): 1.655 | Complete Media ([1]; complete media, […]): 1.781 | Difference ([1]; complete media minus cholesterol-free media + simvastatin, […]): 0.13 | Difference ([2]; Complete minus Cholesterol-free, […]): −0.01 | Cholesterol-free [2, 11]: 0.8197 | Complete [2, 12]: 0.8107

CN(C)C(=N)N=C(N)N [Metformin]
Cholesterol-free media + simvastatin (0.04 μM) [1, 3]: 1.921 | Difference [1, 22]: −0.91 | Difference [2, 6]: −0.64 | Cholesterol-free [2, 7]: 1.603 | Complete [2, 8]: 0.9656

N[C@H](CS)C(=O)O [D-Cysteine]
Cholesterol-free media + simvastatin (0.04 μM) [1, 16]: 1.145 | Complete Media ([1]; drug in complete media): 0.9078 | Difference [1, 5]: −0.24 | Cholesterol-free [2, 18]: 1.1 | Complete ([2]; NCI-H292 cells, complete media): 0.7316 | Difference [2, 19]: −0.37

CC(=O)c1ccc2c(c1)N(CCCN1CCC(CCO)CC1)c1ccccc1S2 [Piperacetazine]
Cholesterol-free media + simvastatin (0.04 μM) [1, 3]: 1.088 | Complete Media [1, 4]: 0.9352 | Difference [1, 5]: −0.15 | Difference [2, 6]: −0.82 | Cholesterol-free [2, 7]: 1.769 | Complete [2, 8]: 0.9455

CCCOc1ccc(S(=O)(=O)N2CCN(CCO)CC2)cc1-c1nc2c(CCC)cn(CC)c2c(=O)[nH]1 [Mirodenafil (dihydrochloride)]
Cholesterol-free media + simvastatin (0.04 μM) [1, 3]: 0.7461 | Complete Media [1, 4]: 0.9273 | Difference [1, 9]: 0.18 | Difference [2, 10]: −0.27 | Cholesterol-free [2, 18]: 1.435
